Results: US20220204491A1, “FXR (NR1H4) MODULATING COMPOUNDS” (Gilead Sciences, Inc., priority 2019, published 2022)
Where two headings read alike, the source gives them in different places.

Legend:
[1] = Drug concentration in plasma of cynomolgus monkey (LC/MS/MS); format: in vivo; conditions: male cynomolgus monkey, read-out: GS-AUClast
Method: Oral solution doses of Formula (I) (Example 1) were formulated at concentrations of 1 mg/mL in aqueous suspensions of 1% sodium laurel sulfate (SLS), 1% ethanol, and 98% water at pH 2. Oral suspension doses of Comparative Example 1, and Comparative Example 2 were formulated at concentrations of 2.5 mg/mL in 1% hydyroxypropyl methylcellulose (HPMC), 0.5% Tween 80, and 98.5% water.
Intravenous doses of compounds of Formula (I) (Example 1), Comparative Example 1, and Comparative Example 2 were formulated at concentrations of 0.5 mg/mL in a vehicle including 5% DMSO, 15% NMP, 60% PEG 300 and water with 1.1 equivalents of NaOH.
Each dosing group consisted of three to six male Cynomolgus monkeys. At dosing, the animals weighed between 2.4 and 4.4 kg.
The oral test articles were administered to the monkeys via oral gavage at 2 mL/kg or nasogastric untubation at 5 mL/kg for a dose of 5 mg/kg. The intravenous test articles were administered as an approximately 30-minute infusion via an indwelling catheter in a saphenous or cephalic vein at approximately 2 mL/kg for a dose of 1 mg/kg.
Venous blood samples were taken at specified time points after dosing from each animal. The blood samples were collected and transferred into tubes containing potassium (K2) EDTA anticoagulant.
For analysis on an API 5000 LC/MS/MS system, an aliquot of 50 μL of each plasma sample was treated with 200 μL of acetonitrile (ACN) containing internal standard. The above solution was centrifuged at 5000 RPM for 10 minutes and 50 μL of supernatant was transferred to a clean 96-well plate, followed by the addition of 200 μL of water. An aliquot of 10 μL was injected to the API 5000 LC/MS/MS system.
For analysis on an Applied Biosystems API 5500 LC/MS/MS system, an aliquot of 20 μL of each plasma sample was treated with 120 μL acetonitrile (ACN) containing internal standard. The above solution was centrifuged and 100 μL of supernatant was transferred to a clean 96-well plate, followed by the addition of 100 μL of water. An aliquot of 7-10 μL was injected to the API 5500 LC/MS/MS system.
A Zorbax Extend C18 HPLC column (50×2.1 mm, 3.5 μm) from Agilent Technologies (Part #735700-902) (Comparative Example 1, and Comparative Example 2) or a Waters BEH C18 column (50×2.1 mm, 1.7 μm) (Example 1) was used. For the Zorbax Extend C18 HPLC column, mobile phase A contained an aqueous solution of 1% acetonitrile in 10 mM ammonium formate adjusted to pH 3.0 with formic acid and mobile phase B contained and 10% 10 mM ammonium formate in acetonitrile adjusted to pH 4.6 with formic acid. For the Waters BEH C18 column, mobile phase A contained 95% water, 5% acetonitrile, and 0.1% formic acid and mobile phase B contained 50% methanol, 50% acetonitrile, and 0.1% formic acid. A Thermo Aria multiplexer with two identical Agilent 1200 series binary pumps (P/N G1312A Bin Pump) was used for elution and separation. The elution programs used are set forth in the following Table 2 for the Zorbax Extend C18 HPLC and Table 3 for the Waters BEH C18 column.
An API 5000 triple quadrupole mass spectrometer from AB Sciex, Foster City, Calif. was used in multiple reaction monitoring mode to quantify the compounds.
Activation of the Farnesoid X receptor in the distal small intestine as well as systemically in organs such as the liver, directly causes the expression and secretion of FGF19. Plasma FGF levels were evaluated as a pharmacodynamics marker of FXR activation in male cynomolgus monkeys following administration of oral and intravenous administration of doses of Example 1, Comparative Example 1, or Comparative Example 2. The difference between levels of FGF19 following oral administration (PO) versus intravenous administration (IV) were used to compare the degree of intestinal FXR agonism (via analysis of PO data) and systemic FXR agonism (via analysis of IV data) for each compound administered. […]

CYP2B6 = target: T1, CYP2B6 (Homo sapiens, UniProt P20813); experiment: CYP2B6 inhibition in human liver microsomes (bupropion probe); format: in vitro ADME; conditions: human liver microsomes 0.1 mg/mL, bupropion 110 μM, 0.1-25 μM compound
T1 construct: from tissue; host or cells: human liver microsomes
T1 sequence (P20813 1-491): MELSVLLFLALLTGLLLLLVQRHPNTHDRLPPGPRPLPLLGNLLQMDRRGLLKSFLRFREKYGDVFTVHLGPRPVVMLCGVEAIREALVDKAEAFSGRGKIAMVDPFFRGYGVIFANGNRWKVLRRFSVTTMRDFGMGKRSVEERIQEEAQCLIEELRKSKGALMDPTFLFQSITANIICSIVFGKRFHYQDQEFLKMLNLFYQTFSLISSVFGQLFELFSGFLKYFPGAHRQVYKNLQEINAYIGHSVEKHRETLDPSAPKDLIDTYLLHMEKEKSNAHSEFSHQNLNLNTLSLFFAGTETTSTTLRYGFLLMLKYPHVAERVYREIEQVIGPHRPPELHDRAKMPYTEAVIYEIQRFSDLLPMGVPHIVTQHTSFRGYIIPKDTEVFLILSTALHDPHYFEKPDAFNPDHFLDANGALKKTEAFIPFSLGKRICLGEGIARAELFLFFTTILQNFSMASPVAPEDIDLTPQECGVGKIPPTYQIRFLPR
Method: The compound of Formula (I) (Example 1) was assessed for CYP2C8, CYP3A4, and CYP2B6 inhibition and was compared against Comparative Example 1.
Six test compound concentrations (0.1, 0.25, 1, 2.5, 10, 25 μM in DMSO; final DMSO concentration 0.3%) are incubated with human liver microsomes (0.1 mg/mL) and NADPH (1 mM) in the presence of the probe substrate bupropion (110 μM) for 5 min at 37° C. The selective CYP2B6 inhibitor, ticlopidine, is screened alongside the test compounds as a positive control.
For each of the CYP2B6, CYP2C8, and CYP3A4 incubations, the reactions were terminated by methanol addition. The samples were then centrifuged and analyzed by LC-MS/MS. Formic acid in deionised water (final concentration 0.1%) containing internal standard was added to the final sample prior to analysis. A decrease in the formation of the metabolites compared to vehicle control was used to calculate IC50.

SMILES | AUC(0-t) ([1]; IV infusion, 1 mg/kg) [µM·h] | AUC(0-t) ([1]; PO, 5 mg/kg) [µM·h] | CYP2B6 inhibition (CYP2B6)
O=C(O)c1ccc(N2CC(O)(c3ccc(OCc4c(-c5c(Cl)cc(F)cc5Cl)noc4C4CC4)cc3Cl)C2)nc1 [Example 1, 6-(3-(2-chloro-4-((5-cyclopropyl-3-(2,6-dichloro-4-fluorophenyl)isoxazol-4-yl)methoxy)phenyl)-3-hydroxyazetidin-1-yl)nicotinic acid] | 3.15 | 2.25 | did not inhibit CYP2B6
O=C(O)c1cnc(N2CC(O)(c3ccc(OCc4c(-c5c(Cl)cc(F)cc5Cl)noc4C4CC4)cc3Cl)C2)c(F)c1 [Comparative Example 1, 6-(3-(2-chloro-4-((5-cyclopropyl-3-(2,6-dichloro-4-fluorophenyl)isoxazol-4-yl)methoxy)phenyl)-3-hydroxyazetidin-1-yl)-5-fluoronicotinic acid] | 1.63 | 1.67 | inhibited CYP2B6
O=C(O)c1ccc(N2CC(O)(c3ccc(OCc4c(-c5c(Cl)cccc5Cl)noc4C4CC4)cc3Cl)C2)nc1 [Comparative Example 2] | 3.14 | 0.643 | 
